Source: patent US20030004207A1, “USE OF COMPOUNDS WHICH ACTIVATE A 5-HT RECEPTOR TO TREAT URINARY INCONTINENCE” (priority 1999, published 2003)
Where two headings read alike, the source gives them in different places.

Legend:
human 5-HT4 receptor = target: T1, human 5-HT4 receptor (Homo sapiens, UniProt Q13639); experiment: Radioligand binding, human 5-HT4 receptor; details: read-out: Affinity at 5-HT4 (Ki ± SEM)
T1 construct: expressed in transfected cells
Protocol: (§1) The binding of a test compound to a receptor of interest was generally evaluated by competitive binding assays using membrane preparations derived from cells which expressed the receptor. First, conditions were determined which allowed measurement of the specific binding of a compound known to bind to the receptor. Then, the binding of the known compound to the receptor in membrane preparations was evaluated in the presence of several different concentrations of the test compound.
(§2) Other 5-HT Receptors: The binding assays using 5-HT4 were preformed according to the procedures described in U.S. Pat. No. 5,766,879, the disclosure of which is hereby incorporated by reference in its entirety into this application. Other serotonin receptor binding assays were preformed according to published methods: 5-HT2B: Kursar et al., 1992; 5-HT2C: Saltzman et al., 1991; 5-HT3: Hoyer and Neijt, 1987; 5-HT5A: Plassat et al., 1992; 5-HT5B: Matthes et al., 1993; 5-HT6: Kohen et al., 1996.

[1] = test system: distension-induced rhythmic contractions of the rat bladder; experiment: Distension-induced rhythmic contraction (DIRC) model of the micturition reflex; format: in vivo; details: for Effect on distension-induced rhythmic contractions of the rat bladder: urethane-anesthetized female rat, 0.1 mg/kg
Protocol: The effects of compounds on the micturition reflex were assessed in the “distension-induced rhythmic contraction” (DIRC) model in rats, as described in previous publications (e.g. Maggi et al., 1987; Morikawa et al., 1992).
Female Sprague Dawley rats weighing approximately 300 g were anesthetized with subcutaneous urethane (1.2 g/kg). The trachea was cannulated with PE240 tubing to provide a clear airway throughout the experiment. A midline abdominal incision was made and the left and right ureters were isolated. The ureters were ligated distally (to prevent escape of fluids from the bladder) and cannulated proximally with PE10 tubing. The incision was closed using 4-0 silk sutures, leaving the PE10 lines routed to the exterior for the elimination of urine. The bladder was cannulated via the transurethral route using PE50 tubing inserted 2.5 cm beyond the urethral opening. This cannula was secured to the tail using tape and connected to a pressure transducer. To prevent leakage from the bladder, the cannula was tied tightly to the exterior urethral opening using 4-0 silk.
To initiate the micturition reflex, the bladder was first emptied by applying pressure to the lower abdomen, and then filled with normal saline in 100 μl increments (maximum=2 ml) until spontaneous bladder contractions occurred (typically 20-40 mmHg at a rate of one contraction every 1 to 2 minutes. Once a regular rhythm was established, vehicle (saline) or 5-HT1F-selective compounds were administered i.p. to explore their effects on bladder activity. In some instances, a compound known to affect the micturition reflex (e.g. the GABAB receptor agonist APMPA [3-aminopropyl-2-methyl-phosphinic acid]) was given as a “positive control”.

human 5-HT2C receptor = target: T2, human 5-HT2C receptor (Homo sapiens, UniProt P28335); experiment: Radioligand binding, human 5-HT2C receptor
T2 construct: expressed in transfected cells
T2 sequence (P28335 33-458): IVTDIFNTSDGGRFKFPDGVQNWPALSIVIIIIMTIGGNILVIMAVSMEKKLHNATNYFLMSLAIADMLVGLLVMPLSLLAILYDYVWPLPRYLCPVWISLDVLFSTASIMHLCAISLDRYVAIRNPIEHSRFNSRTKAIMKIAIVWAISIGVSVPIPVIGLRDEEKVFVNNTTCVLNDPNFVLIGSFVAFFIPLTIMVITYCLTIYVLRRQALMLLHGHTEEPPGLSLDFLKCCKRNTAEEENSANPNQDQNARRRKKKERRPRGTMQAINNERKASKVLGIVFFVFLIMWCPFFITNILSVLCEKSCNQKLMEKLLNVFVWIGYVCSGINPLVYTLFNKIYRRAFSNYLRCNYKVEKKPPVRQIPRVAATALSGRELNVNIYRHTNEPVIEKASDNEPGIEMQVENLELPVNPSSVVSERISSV
Protocol: as §1, §2

human 5-HT1D receptor = target: T3, human 5-HT1D receptor (Homo sapiens, UniProt P28221); experiment: Radioligand competition binding, human 5-HT1D receptor ([3H]-serotonin); details: read-out: Affinity at 5-HT1D (Ki ± SEM)
T3 construct: expressed in transfected cells
Protocol: as §1
(§3) The binding properties of compounds at different human receptors were determined in vitro using cultured cell lines that selectively express the receptor of interest. These cell lines were prepared by transfecting the cloned cDNA or cloned genomic DNA or constructs containing both genomic DNA and cDNA encoding the human receptors as follows:
(§4) Human 5HT1B, 5HT1D, 5HT1E, 5HT1F, and 5HT7 Receptors:
(§5) The cell lysates of LM(tk-) clonal cell line stably transfected with the genes encoding each of these 5-HT receptor-subtypes were prepared as described above. Cell membranes were suspended in 50 mM Tris-HCl buffer (pH 7.4 at 37° C.) containing 10 mM MgCl2, 0.2 mM EDTA, 10 μM pargyline, and 0.1% ascorbate. […] Nonspecific binding was determined in the presence of 10 μM serotonin. […]

human 5-HT1E receptor = target: T4, human 5-HT1E receptor (Homo sapiens, UniProt P28566); experiment: Radioligand competition binding, human 5-HT1E receptor ([3H]-serotonin); details: read-out: Affinity at 5-HT1E (Ki ± SEM)
T4 construct: expressed in transfected cells
Protocol: as §1, §3, §4
(§6) The cell lysates of LM(tk-) clonal cell line stably transfected with the genes encoding each of these 5-HT receptor-subtypes were prepared as described above. Cell membranes were suspended in 50 mM Tris-HCl buffer (pH 7.4 at 37° C.) containing 10 mM MgCl2, 0.2 mM EDTA, 10 μM pargyline, and 0.1% ascorbate. The affinities of compounds were determined in equilibrium competition binding assays by incubation for 30 minutes at 37° C. in the presence of 5 nM [^3H]-serotonin. Nonspecific binding was determined in the presence of 10 μM serotonin. The bound radioligand was separated by filtration through GF/B filters using a cell harvester.

human 5-HT2A receptor = target: T5, human 5-HT2A receptor (Homo sapiens, UniProt P28223); experiment: Radioligand competition binding, human 5-HT2A receptor ([3H] ketanserin)
T5 construct: expressed in transfected cells; host or cells: COS-7 (transient, pCEXV-3 vector)
Protocol: as §1, §3
Human 5HT2A Receptor: The coding sequence of the human 5HT2A receptor was obtained from a human brain cortex cDNA library, and cloned into the cloning site of pCEXV-3 eukaryotic expression vector. This construct was transfected into COS-7 cells by the DEAE-dextran method. Cells were harvested after 72 hours and lysed by sonication in 5 mM Tris-HCl, 5 mM EDTA, pH 7.5. […] The affinity of compounds at 5-HT2A receptors were determined in equilibrium competition binding assays using [^3H] ketanserin (1 nM). […]

human 5-HT1F receptor = target: T6, human 5-HT1F receptor (Homo sapiens, UniProt P30939); experiment: Radioligand competition binding, human 5-HT1F receptor ([3H]-serotonin); details: read-out: Affinity at 5-HT1F (Ki ± SEM)
T6 construct: expressed in transfected cells
T6 sequence (P30939 1-366): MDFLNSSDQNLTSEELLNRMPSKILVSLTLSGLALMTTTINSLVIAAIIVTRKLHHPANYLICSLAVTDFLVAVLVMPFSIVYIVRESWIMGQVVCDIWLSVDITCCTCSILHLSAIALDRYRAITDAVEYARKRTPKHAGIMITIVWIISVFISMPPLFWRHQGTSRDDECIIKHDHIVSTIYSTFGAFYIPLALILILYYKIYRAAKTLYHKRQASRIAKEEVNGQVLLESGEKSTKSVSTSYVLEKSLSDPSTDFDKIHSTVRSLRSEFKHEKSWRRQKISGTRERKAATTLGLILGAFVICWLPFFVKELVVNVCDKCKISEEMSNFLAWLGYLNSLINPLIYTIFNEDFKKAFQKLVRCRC
Protocol: as §1, §3, §4, §6

human 5-HT1A receptor = target: T7, human 5-HT1A receptor (Homo sapiens, UniProt P08908); experiment: Radioligand competition binding, human 5-HT1A receptor (3H-8-OH-DPAT); details: read-out: Affinity at 5-HT1A (Ki ± SEM)
T7 construct: expressed in transfected cells; host or cells: COS-7 (transient, pCEXV-3 vector)
T7 sequence (P08908 1-422): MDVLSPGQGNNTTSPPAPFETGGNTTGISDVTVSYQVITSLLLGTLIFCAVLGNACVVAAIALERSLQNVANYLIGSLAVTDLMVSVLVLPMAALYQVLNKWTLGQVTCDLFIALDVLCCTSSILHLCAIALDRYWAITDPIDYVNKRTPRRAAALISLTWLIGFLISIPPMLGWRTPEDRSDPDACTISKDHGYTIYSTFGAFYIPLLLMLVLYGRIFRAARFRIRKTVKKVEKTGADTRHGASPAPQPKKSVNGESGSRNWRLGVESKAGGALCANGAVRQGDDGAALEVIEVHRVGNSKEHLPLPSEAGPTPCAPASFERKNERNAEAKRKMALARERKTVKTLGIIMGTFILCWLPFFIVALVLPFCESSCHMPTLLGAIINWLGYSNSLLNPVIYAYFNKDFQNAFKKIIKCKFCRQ
Protocol: as §1
The binding properties of compounds at different human receptors were determined in vitro using cultured cell lines that selectively express the receptor of interest. […]
Human 5HT2A Receptor: The coding sequence of the human 5HT2A receptor was obtained from a human brain cortex cDNA library, and cloned into the cloning site of pCEXV-3 eukaryotic expression vector. […] The affinity of compounds at 5-HT2A receptors were determined in equilibrium competition binding assays using [^3H] ketanserin (1 nM). […]
5-HT1A Receptor: The cDNA corresponding to the 5-HT1A receptor open reading frames and variable non-coding 5′- and 3′-regions, was cloned into the eukaryotic expression vector pCEXV-3. […] Radioligand binding assays were performed as described above for the 5-HT2A receptor, except that ^3H-8-OH-DPAT was used as the radioligand and nonspecific binding was determined by the addition of 10 μM mianserin.

human 5-HT6 receptor = target: T8, human 5-HT6 receptor (Homo sapiens, UniProt P50406); experiment: Radioligand binding, human 5-HT6 receptor; details: read-out: Affinity at 5-HT6 (Ki ± SEM)
T8 construct: expressed in transfected cells
Protocol: as §1, §2

human 5-HT7 receptor = target: T9, human 5-HT7 receptor (Homo sapiens, UniProt P34969); experiment: Radioligand competition binding, human 5-HT7 receptor ([3H]-serotonin); details: read-out: Affinity at 5-HT7 (Ki ± SEM)
T9 construct: expressed in transfected cells
Protocol: as §1, §3, §4, §5

human 5-HT2B receptor = target: T10, human 5-HT2B receptor (Homo sapiens, UniProt P41595); experiment: Radioligand binding, human 5-HT2B receptor
T10 construct: expressed in transfected cells
Protocol: as §1, §2

human 5-HT1B receptor = target: T11, human 5-HT1B receptor (Homo sapiens, UniProt P28222); experiment: Radioligand competition binding, human 5-HT1B receptor ([3H]-serotonin); details: read-out: Affinity at 5-HT1B (Ki ± SEM)
T11 construct: expressed in transfected cells
Protocol: as §1, §3, §4, §5

[2] = rat, prior administration of antagonist 1.0 mg/kg, i.p.

T4 sequence (P28566 whole entry): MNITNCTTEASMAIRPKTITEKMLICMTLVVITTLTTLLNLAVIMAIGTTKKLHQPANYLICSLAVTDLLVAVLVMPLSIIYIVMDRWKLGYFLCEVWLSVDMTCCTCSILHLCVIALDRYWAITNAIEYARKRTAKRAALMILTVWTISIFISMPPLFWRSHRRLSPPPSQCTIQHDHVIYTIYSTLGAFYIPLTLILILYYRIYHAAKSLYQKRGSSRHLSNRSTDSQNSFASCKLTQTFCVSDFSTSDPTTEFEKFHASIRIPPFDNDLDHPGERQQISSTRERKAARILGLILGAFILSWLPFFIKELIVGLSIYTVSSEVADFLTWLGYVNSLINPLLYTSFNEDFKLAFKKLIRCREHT
T10 sequence (P41595 whole entry): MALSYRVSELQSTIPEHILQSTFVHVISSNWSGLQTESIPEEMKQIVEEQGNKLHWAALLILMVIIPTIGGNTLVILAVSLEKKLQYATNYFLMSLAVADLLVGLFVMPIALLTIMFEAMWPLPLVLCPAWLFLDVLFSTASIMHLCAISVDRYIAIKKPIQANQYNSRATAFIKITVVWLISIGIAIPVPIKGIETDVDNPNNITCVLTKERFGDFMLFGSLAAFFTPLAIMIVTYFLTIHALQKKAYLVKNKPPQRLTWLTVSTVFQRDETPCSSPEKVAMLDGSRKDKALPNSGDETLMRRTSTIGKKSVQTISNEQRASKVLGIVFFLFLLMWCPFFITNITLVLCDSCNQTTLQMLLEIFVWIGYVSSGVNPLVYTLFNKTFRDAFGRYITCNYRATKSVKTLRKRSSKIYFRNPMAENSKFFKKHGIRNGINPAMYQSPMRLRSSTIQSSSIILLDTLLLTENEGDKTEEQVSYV
T8 sequence (P50406 whole entry): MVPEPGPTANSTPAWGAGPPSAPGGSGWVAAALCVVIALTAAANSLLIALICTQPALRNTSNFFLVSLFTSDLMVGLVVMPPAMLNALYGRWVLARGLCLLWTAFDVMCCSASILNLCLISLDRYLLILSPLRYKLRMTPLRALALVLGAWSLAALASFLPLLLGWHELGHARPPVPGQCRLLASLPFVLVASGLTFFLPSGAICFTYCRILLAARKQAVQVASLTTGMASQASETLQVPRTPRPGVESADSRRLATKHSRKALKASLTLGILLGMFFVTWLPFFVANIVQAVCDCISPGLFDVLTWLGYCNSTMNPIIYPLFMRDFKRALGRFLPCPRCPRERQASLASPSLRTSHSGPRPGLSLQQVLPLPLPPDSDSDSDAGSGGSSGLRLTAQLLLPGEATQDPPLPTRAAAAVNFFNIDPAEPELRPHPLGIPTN
T11 sequence (P28222 whole entry): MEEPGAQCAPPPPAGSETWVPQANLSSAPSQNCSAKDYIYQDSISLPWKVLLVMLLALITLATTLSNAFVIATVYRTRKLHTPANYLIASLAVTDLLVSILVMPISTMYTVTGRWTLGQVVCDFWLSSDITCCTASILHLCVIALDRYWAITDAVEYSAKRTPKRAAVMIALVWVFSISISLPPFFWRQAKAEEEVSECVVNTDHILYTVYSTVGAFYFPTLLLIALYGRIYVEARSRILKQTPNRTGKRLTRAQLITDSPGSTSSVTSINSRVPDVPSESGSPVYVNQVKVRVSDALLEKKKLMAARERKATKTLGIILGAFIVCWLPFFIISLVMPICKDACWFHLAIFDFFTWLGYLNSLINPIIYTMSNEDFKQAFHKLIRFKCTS
T5 sequence (P28223 whole entry): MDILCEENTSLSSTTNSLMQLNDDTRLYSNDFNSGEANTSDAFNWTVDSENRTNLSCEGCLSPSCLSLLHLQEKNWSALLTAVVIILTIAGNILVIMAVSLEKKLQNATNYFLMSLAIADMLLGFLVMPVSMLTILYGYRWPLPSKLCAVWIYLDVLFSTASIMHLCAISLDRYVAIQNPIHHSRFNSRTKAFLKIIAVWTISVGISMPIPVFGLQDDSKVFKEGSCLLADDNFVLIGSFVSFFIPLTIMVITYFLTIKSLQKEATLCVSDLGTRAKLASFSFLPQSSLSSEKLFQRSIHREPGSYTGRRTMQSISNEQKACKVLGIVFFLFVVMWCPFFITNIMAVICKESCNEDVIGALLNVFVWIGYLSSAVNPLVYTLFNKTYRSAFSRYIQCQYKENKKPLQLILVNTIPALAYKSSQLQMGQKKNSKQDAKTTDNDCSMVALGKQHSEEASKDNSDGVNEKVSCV
T3 sequence (P28221 whole entry): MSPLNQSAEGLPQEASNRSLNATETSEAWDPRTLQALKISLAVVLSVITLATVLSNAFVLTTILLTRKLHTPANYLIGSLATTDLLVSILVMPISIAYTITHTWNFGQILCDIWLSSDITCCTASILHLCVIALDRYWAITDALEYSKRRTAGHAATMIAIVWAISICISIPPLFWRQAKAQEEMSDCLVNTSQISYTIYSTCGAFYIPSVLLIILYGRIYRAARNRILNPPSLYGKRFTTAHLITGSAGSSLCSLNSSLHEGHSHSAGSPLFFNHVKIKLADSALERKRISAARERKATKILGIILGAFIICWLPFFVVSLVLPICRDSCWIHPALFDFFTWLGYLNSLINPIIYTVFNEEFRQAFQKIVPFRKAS
T1 sequence (Q13639 whole entry): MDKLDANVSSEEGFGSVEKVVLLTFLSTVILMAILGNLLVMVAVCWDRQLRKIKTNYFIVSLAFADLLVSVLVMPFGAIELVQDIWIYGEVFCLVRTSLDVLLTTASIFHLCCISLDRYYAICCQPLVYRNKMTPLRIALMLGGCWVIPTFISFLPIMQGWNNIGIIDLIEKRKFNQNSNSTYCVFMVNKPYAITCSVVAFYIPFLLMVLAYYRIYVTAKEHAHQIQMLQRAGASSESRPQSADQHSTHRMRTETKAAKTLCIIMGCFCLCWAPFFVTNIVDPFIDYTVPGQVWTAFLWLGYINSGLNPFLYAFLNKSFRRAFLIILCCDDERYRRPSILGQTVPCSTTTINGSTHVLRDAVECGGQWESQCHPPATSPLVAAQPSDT
T9 sequence (P34969 whole entry): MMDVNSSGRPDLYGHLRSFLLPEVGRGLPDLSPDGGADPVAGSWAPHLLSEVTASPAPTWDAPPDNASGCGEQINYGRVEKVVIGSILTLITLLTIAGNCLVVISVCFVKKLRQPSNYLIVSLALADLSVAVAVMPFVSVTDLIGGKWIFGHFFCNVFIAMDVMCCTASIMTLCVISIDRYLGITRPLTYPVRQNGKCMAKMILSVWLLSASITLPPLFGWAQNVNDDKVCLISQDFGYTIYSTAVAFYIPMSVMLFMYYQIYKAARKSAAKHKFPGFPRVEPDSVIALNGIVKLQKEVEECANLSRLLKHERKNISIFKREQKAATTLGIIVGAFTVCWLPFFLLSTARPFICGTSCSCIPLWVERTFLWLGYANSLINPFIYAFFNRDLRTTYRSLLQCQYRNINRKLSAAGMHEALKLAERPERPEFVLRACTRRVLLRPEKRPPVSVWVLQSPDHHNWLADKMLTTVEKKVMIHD

`O[C@H](COc1ccc2ccccc2c1)CN1CCC(O)(c2cnc3ccccc3c2)CC1` [Compound 3, 1-((2S)-hydroxy-3-(naphth-2-yloxy)prop-1-yl)-4-hydroxy-4-(quinolin-3-yl)piperidine] was tested, and the Ki (human 5-HT4 receptor) was 405 ± 122 nM, the “Blockade of the inhibitory effect of Compound 2 on bladder contractions” value [1, 2] was “complete blockade” and the “Blockade of the inhibitory effect of the GABAB agonist 3-APMPA on bladder contractions” value [1, 2] was “failed to block”. The Ki (human 5-HT2C receptor) was 1370 ± 341 nM, the Ki (human 5-HT1D receptor) was 1530 ± 400 nM and the Ki (human 5-HT1E receptor) was 3670 ± 505 nM. It also gave a Ki (human 5-HT2A receptor) of 377 ± 94 nM, a Ki (human 5-HT1F receptor) of 4.31 ± 0.53 nM and a Ki (human 5-HT1A receptor) of 591 ± 143 nM. For the same molecule, the Ki (human 5-HT6 receptor) was 4220 ± 399 nM, the Ki (human 5-HT7 receptor) was 4410 ± 514 nM and the Ki (human 5-HT2B receptor) was 496 ± 36 nM. The Ki (human 5-HT1B receptor) was 1280 ± 144 nM.

For `CN(C)[C@@H]1CCc2c([nH]c3ccc(NC(=O)c4ccc(F)cc4)cc23)C1` [Compound 2, (R)-(+)-6-(4-fluorobenzoyl)amino-2-(dimethyl)amino-1,2,3,4-tetrahydro-9H-carbazole], the “Effect on distension-induced rhythmic contractions of the rat bladder” value ([1]; i.p.) was “inhibited”, the Ki (human 5-HT1E receptor) was 461 ± 102 nM and the Ki (human 5-HT1F receptor) was 3.47 ± 0.08 nM.

With `CP(=O)(O)CCCN` [Compound 3-APMPA, 3-aminopropyl-methyl-phosphinic acid, reference compound] the “Effect on bladder contractions (positive control)” value ([1]; rat, after Compound 3, dose not given) was “inhibitory effect”.

With `CN(C)C1CCc2oc3ccc(NC(=O)c4ccncc4)cc3c2C1` (centres unmarked) [Compound 1, N-(N,N-Dimethyl-1,2,3,4-tetrahydro-2-aminodibenzofur-8-yl)-pyridine-4-carboxamide] the Ki (human 5-HT4 receptor) was 1870 ± 57 nM, the “Effect on distension-induced rhythmic contractions of the rat bladder” value ([1]; i.p.) was “inhibited” and the Ki (human 5-HT2C receptor; human 5-HT2C, read-out: Affinity at 5-HT2C (Ki ± SEM)) was 4760 ± 169 nM. The Ki (human 5-HT1D receptor) was 1780 ± 87 nM, the Ki (human 5-HT1E receptor) was 2900 ± 288 nM and the Ki (human 5-HT2A receptor; human 5-HT2A, read-out: Affinity at 5-HT2A (Ki ± SEM)) was > 5000 nM. The Ki (human 5-HT1F receptor) was 7.11 ± 0.76 nM, the Ki (human 5-HT1A receptor) was 367 ± 42 nM and the Ki (human 5-HT6 receptor) was > 5000 nM. The Ki (human 5-HT7 receptor) was > 5000 nM, the Ki (human 5-HT2B receptor; human 5-HT2B, read-out: Affinity at 5-HT2B (Ki ± SEM)) was 4200 ± 219 nM and the Ki (human 5-HT1B receptor) was 751 ± 68 nM.
